Source: patent publication US20040087561A1, “Treatment of sexual dysfunction” (priority 2000, published 2004)
Where two headings read alike, the source gives them in different places. Values belong to the molecule of their own block, whether it stands above or below them.

Columns and labels:
[1] = system: ovariectomised female Sprague Dawley rats; experiment: Female rat sexual proceptivity (time investigating male vs female stimulus); type: in vivo; details: for MED, percentage of time spent investigating the male stimulus (proceptivity) / percentage of time spent investigating the male stimulus (proceptivity): 1 h before test
Description: (§1) Ovariectomised adult female Sprague Dawley rats (180-200 g, from Charles River) were housed in groups of 6 in a reversed lighting system of 12 h light:dark (lights off 7.00-19.00 h). Two weeks after ovariectomy they were used for sexual activity tests. The experiments started at least 5 h into the dark period.
Tests were carried out in a circular arena of 90 cm diameter, surrounded by a 30 cm high wall. Two small cages with wire-mesh front (15×15 cm) are fixed into the wall such that the front of the cage is <> with the wall and the 2 cages are opposite each other. They contained two stimuli animals: an intact sexually experienced male and a receptive female (ovariectomised, primed with 5 μg oestradiol benzoate dissolved in corn oil and injected subcutaneously 48 hours before the test and with 0.5 mg of progesterone four hours before the test). Sexually naive test and control animals were used. Forty eight hours before the tests, both the test and control animals were primed with 5 μg oestradiol benzoate. For animals used as positive controls, progesterone (0.5 mg/0.1 ml) was dissolved in corn oil and administered subcutaneously (s.c.), 4 h before the test. Test and control animals were introduced one at a time for 10 minute periods into the arena. During the 10 min test, the time that the test or positive control animal spent investigating each stimulus animal was noted. The arena was thoroughly cleaned between animals. The position of the male/female stimuli boxes was randomised between animals, in order to avoid place preference. The difference in the percentage of time spent investigating the male minus the female stimuli was calculated, out of the total time spent investigating stimuli animals.
Compound (1) was dissolved in 100% β-cyclodextrin and then diluted with saline to a final solution of 50% 2-hydroxypropyl-β-cyclodextrin. It was administered intraperitoneally (i.p.) at doses of 3 and 10 mg/kg, in a dosing volume of 1 ml/kg, 1 h before tests. Progesterone (0.5 mg/0.1 ml) was dissolved in corn oil and administered subcutaneously (s.c.), 4 h before test, as a positive control.
Ovariectomised adult female Sprague Dawley rats (180-200 g) were housed in groups of 5 in a reversed lighting system of 12 h light:dark (lights off 5.00-17.00 h). They were used for the experiments at least two weeks after ovariectomy. Forty eight hours before tests, the animals were primed with oestradiol benzoate (5 μg/0.1 ml in corn oil, s.c.). On day 1, progesterone (0.5 mg/0.1 ml, in corn oil, s.c.) was administered to one of the groups 4 h before tests, as a positive control. Compound (1) (15 mg/kg, i.p.) was administered in 50% 2-hydroxypropyl-β-cyclodextrin, 1 h before tests. The test lasted 10 minutes and was carried out as described before. The difference in the percentage of time spent investigating the male minus the female stimuli was calculated, out of the total time spent investigating stimuli animals. Animals were submitted to a test on day 1 and on day 15. From day 2 to 14 the Compound (1) group received a daily injection of the compound (15 mg/kg, i.p.), while both the vehicle and the progesterone groups received an injection of vehicle. On day 15 the test took place again, as described for day 1.
Ovariectomised female rats (Sprague Dawley, obtained from Charles River, UK) were stereotaxically implanted (coordinates 0.89 mm behind Bregma, 1.3 mm lateral and 2.5 mm vertical) with stainless steel cannulae (6 mm long, O.D. 0.75 mm), held in place with dental cement. Animals were housed in groups of three and returned to a reversed lighting system of 12 h light:dark (lights off 5.00-17.00 h). Correct placement of the cannulae was assessed post-mortem. Rats were used for tests two weeks after ovariectomy (one week after cannulation). The experiments started at least 5 h into the dark period. […]

[2] = system: ovariectomised female Sprague Dawley rats; experiment: Female rat sexual receptivity (lordosis quotient); type: in vivo; details: for lordosis quotient (LQ) compared to LQ before administration: quinelorane 6.25 μg/kg s.c., 90 min
Description: as §1
Compound (1) was dissolved in 100% β-cyclodextrin and then diluted with saline to a final solution of 50% 2-hydroxypropyl-β-cyclodextrin. It was administered intraperitoneally (i.p.) at a dose of 10 mg/kg, in a dosing volume of 1 ml/kg. Quinelorane (6.25 μg/kg) was dissolved in water and administered s.c. as positive control. Forty eight hours before testing, ovariectomised female rats (as described above), were primed with 5 μg oestradiol benzoate dissolved in corn oil and injected subcutaneously. […] The females were placed with a series of vigorous male rats and subjected to 10 mounts.
The lordotic response of the animal was recorded and expressed as a percentage of the mounts (i.e. lordosis quotient, LQ), as previously described. Animals showing LQ<20 were considered non-receptive and were included in the study. Each rat was tested prior to administration of the compound and then tested similarly post-injection. The pre-treatment times were 1 h for Compound (1) and vehicle (50% β-cyclodextrin, i.p.) or 90 min for quinelorane.
The above compound was dissolved in PEG200 vehicle and administered orally. Quinelorane dihydrochloride (LY 163,502, 6.25 μg/kg) was dissolved in water and administered subcutaneously (s.c.), as a positive control. Both compounds were administered in a 1 ml/kg volume.
Forty eight hours before tests, the animals were primed with 5 μg oestradiol benzoate (Sigma Chemical. Co. Ltd., UK) dissolved in corn oil and injected subcutaneously. The females were placed with a series of vigorous male rats and subjected to 10 mounts. The lordotic response of the animal was recorded and expressed as a percentage of the mounts (i.e. lordosis quotient, LQ). […] Animals showing higher LQ were not included in the study. Each rat was tested prior to administration of the compound and then tested similarly at 1 h and 90 min post-injection of the above compound or quinelorane respectively.

human NMB receptor (BB1) = target: T1, human NMB receptor (BB1) (Homo sapiens, UniProt P28336); experiment: BB1 binding assay ([125I][Tyr4]bombesin, CHO-K1 cell membranes)
T1 construct: expressed in transfected cells; host or cells: CHO-K1
T1 sequence (P28336 whole entry): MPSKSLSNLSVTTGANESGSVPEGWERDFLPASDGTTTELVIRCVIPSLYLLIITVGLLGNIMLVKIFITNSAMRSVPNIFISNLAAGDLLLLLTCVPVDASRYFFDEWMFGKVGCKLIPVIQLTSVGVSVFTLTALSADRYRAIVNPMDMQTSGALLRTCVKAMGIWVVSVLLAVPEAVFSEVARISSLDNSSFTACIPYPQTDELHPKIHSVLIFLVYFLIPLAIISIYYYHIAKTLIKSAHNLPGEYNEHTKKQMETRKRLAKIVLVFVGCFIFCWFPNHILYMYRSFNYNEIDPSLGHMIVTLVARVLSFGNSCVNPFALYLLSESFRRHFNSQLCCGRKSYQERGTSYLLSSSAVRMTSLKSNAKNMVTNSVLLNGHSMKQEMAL
Description: In the following experiments, measurement of BB1 and BB2 binding was as follows. CHO-K1 cells stably expressing cloned human NMB (for (BB1 assay) and GRP receptors (for BB2 assay) were routinely grown in Ham's F12 culture medium supplemented with 10% foetal calf serum and 2 mM glutamine. For binding experiments, cells were harvested by trypsinization, and stored frozen at −70° C. in Ham's F12 culture medium containing 5% DMSO until required. On the day of use, cells were thawed rapidly, diluted with an excess of culture medium, and centrifuged for 5 minutes at 2000 g. Cells were resuspended in 50 mM Tris-HCl assay buffer (pH 7.4 at 21° C., containing 0.02% BSA, 40 μg/mL bacitracin, 2 μg/mL chymostatin, 4 μg/mL leupeptin, and 2 μM phosphoramidon), counted, and polytronned (setting 5, 10 sec) before centrifuging for 10 minutes at 28,000 g. The final pellet was resuspended in assay buffer to a final cell concentration of 1.5×10^5/mL. For binding assays, 200 μL aliquots of membranes were incubated with [^125I][Tyr^4]bombesin (<0.1 nM) in the presence and absence of test compounds (final assay volume 250 μL) for 60 minutes and 90 minutes for NMB and GRP receptors, respectively. Nonspecific binding was defined by 1 μM bombesin. Assays were terminated by rapid filtration under vacuum onto Whatman GF/C filters presoaked in 0.2% PEI for >2 hours, and washed 50 mM Tris-HC (pH 6.9 at 21° C.; 6×1 mL). Radioactivity bound was determined using a gamma counter.
All competition data was analysed using nonlinear regression utilizing iterative curve-plotting procedures in Prism® (GraphPad Software Inc., San Diego, USA). IC50 values were corrected to Ki values using the Cheng-Prusoff equation (Cheng Y., PrusoffW. H., Biochem. Pharmacol. 22: 3099-3108, 1973).

Sprague Dawley male rats = experiment: Sexual behaviour of sexually dysfunctional (fluoxetine-treated) male rats; type: in vivo, rat; details: fluoxetine 20 mg/kg i.p. 3 days (vs vehicle+vehicle); day 4 Compound (1) 15 mg/kg or yohimbine 2 mg/kg i.p. 1 h before test (vs fluoxetine+vehicle)
Description: Sprague Dawley male rats (Charles River, UK) were kept, 4 rats per cage, in a reversed lighting regime (12:12 hours, lights off at 5.00 h), with free access to food and water. The rats were pre-selected by being presented with a receptive female at […], i.e. every third day (haying 2 clear days between presentations) until completing 6-7 trials of baseline determination. The animals showing consistently vigorous behaviour (ejaculatory latencies <300 s) were chosen for further experiments. Animals were treated for 3 consecutive days with either vehicle (water) or fluoxetine (20 mg/kg, i.p., in a 2 ml/kg dosing volume). On the fourth day, the animals treated with water received vehicle (veh+veh) and the animals treated with fluoxetine received one of the three following treatments: Compound (1) (15 mg/kg, dissolved in 50% 2-hydroxypropyl-β-cyclodextrin in saline), vehicle (cyclodextrine), or yohimbine (2 mg/kg dissolved in water). All treatments were administered i.p. in a 1 ml/kg volume, 1 h before tests.
For all the sexual behaviour tests, the males were placed in an observation arena (50-60 cm diameter), starting 5 hours into the dark cycle and observed under red illumination. Three to 4 minutes after placing the male in the arena, a receptive female (ovariectomised, bearing a 7 mm Silastic implant of oestradiol benzoate) was introduced to the arena and the following parameters noted: Mount Latency: time (in seconds) taken between introduction of female and first mount. A maximum time of 15 minutes (900 seconds) was allowed, and the test terminated if no mounts were recorded within that time (FIG. 16), Ejaculation Latency: time (in seconds) taken from first intromission to ejaculation. A maximum time of 30 minutes (1800 seconds) was given, and the test terminated if ejaculation was not achieved in that time (FIG. 17), Percentage of males achieving ejaculation within 30 minutes was calculated (FIG. 18).
A one-way ANOVA followed by Dunnett's t test was used to compare the fluoxetine+vehicle group and other groups for mount and ejaculatory latencies. Percentage of animals ejaculating was analysed using a Chi-square test followed by Fisher's test. (*: P<0.05, **: P<0.01, ***: P<0.001; n=15-19).

[3] = oral, 30-100 mg/kg in PEG 200 vehicle
[4] = p.o., 3-30 mg/kg in 0.5% methyl cellulose
[5] = Example 31, Compound (2) 10-100 mg/kg oral in PEG200, 1 h

Molecule: COc1ccc(C2(CNC(=O)[C@](C)(Cc3c[nH]c4ccccc34)Nc3nc(-c4ccc([N+](=O)[O-])cc4)co3)CCCCC2)nc1 [Example 9, (S)-3-(1H-Indol-3-yl)-N-[1-(5-methoxy-pridin-2-yl)-cyclohexylmethyl]-2-methyl-2-[4-(4-nitro-phenyl)-oxazol-2-ylamino]-propionamide]
increase in potency compared to the oral results in the PEG200 vehicle ([1]; MED in 0.5% methyl cellulose vs MED in PEG200, p.o.): 10 fold
MED, percentage of time spent investigating the male stimulus (proceptivity) [1, 3]: 100 mg/kg
percentage of time spent investigating the male stimulus (proceptivity) [1, 3]: increased the percentage of time spent investigating the male stimulus
MED, percentage of time spent investigating the male stimulus (proceptivity) [1, 4]: 10 mg/kg
percentage of time spent investigating the male stimulus (proceptivity) [1, 4]: increased the percentage of time spent investigating the male stimulus
lordosis quotient (LQ) compared to LQ before administration [2, 5]: dose-dependently (10-100 mg/kg) increased the LQ
MED, increase of lordosis quotient (LQ) ([2]; Example 31, single oral administration 10-100 mg/kg in PEG200, 1 h after administration): 100 mg/kg

IC50 (human NMB receptor (BB1); Table 3): 944 nM
Molecule: Cc1ccccc1CC(=O)N[C@@](C)(Cc1c[nH]c2ccccc12)C(=O)NCC1(c2ccccn2)CCCCC1 [Example 51, (S)-3-(1H-Indol-3-yl)-2-methyl-N-(1-pyridin-2-yl-cyclohexylmethyl)-2-(2-o-tolyl-ethanoylamino)-propionamide]

IC50 (human NMB receptor (BB1)): 214 nM
Molecule: C[C@@](Cc1c[nH]c2ccccc12)(NS(=O)(=O)c1cc(Cl)sc1Cl)C(=O)NCC1(c2ccccn2)CCCCC1 [Example 157]

Molecule: COC(=O)[C@@H]1[C@H]2C[C@H]3c4[nH]c5ccccc5c4CCN3C[C@@H]2CC[C@@H]1O [Yohimbine, yohimbine]
Ejaculation latency (Sprague Dawley male rats): did not reach significance
Mount latency (Sprague Dawley male rats): did not reach significance
percentage of animals ejaculating (within 30 minutes) (Sprague Dawley male rats): did not reach significance

Molecule: CCCN1CCC[C@@H]2Cc3nc(N)ncc3C[C@H]21 [quinelorane, reference compound]
lordosis quotient (LQ) compared to LQ before administration ([2]; Example 2, Compound (1) 10 mg/kg i.p., 1 h): significantly (P<0.01) increased the LQ
lordosis quotient (LQ) compared to LQ before administration [2, 5]: significantly (P<0.01) increased the LQ

IC50 (human NMB receptor (BB1); Table 3): 716 nM
Molecule: C-Dimethylamino-N—{(S)-2-(1H-indol-3-yl)-1-methyl-1-[(1-pyridin-2-yl-cyclohexyl-methyl)-carbamoyl]-ethyl}-benzamide [Example 48]
